MS % modification data for six molecules are collected here from patent publication US9549927B2, “Heteroaryl compounds and uses thereof” (Celgene Avilomics Research, Inc., priority 2012, dated 2017).

The structures appear in SMILES notation.

T1 sequence (Q06187 whole entry): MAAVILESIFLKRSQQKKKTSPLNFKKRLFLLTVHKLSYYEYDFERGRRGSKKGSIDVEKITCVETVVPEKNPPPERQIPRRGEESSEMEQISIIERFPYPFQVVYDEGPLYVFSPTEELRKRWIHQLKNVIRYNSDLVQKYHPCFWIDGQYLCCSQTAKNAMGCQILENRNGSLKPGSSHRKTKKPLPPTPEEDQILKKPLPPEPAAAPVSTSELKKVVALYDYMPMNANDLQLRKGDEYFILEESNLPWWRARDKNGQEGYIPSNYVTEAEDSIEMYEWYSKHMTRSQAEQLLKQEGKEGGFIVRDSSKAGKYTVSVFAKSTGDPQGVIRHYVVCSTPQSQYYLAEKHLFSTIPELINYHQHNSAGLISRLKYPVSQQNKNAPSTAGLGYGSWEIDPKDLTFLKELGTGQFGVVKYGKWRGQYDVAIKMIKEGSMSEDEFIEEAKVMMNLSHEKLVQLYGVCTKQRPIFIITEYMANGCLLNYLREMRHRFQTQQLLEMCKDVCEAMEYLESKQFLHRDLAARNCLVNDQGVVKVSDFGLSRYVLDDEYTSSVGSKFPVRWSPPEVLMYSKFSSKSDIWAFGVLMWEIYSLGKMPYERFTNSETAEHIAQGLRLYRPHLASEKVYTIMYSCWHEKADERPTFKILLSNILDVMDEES

This test concerns the target T1, full-length recombinant human Btk protein (Homo sapiens, UniProt Q06187).
T1 construct: The full-length recombinant human Btk protein; purchased Invitrogen (Carlsbad, Calif.) Lot #619547Q (catalogue number not given)
Kind of test: Covalent bonding assay, intact protein MALDI mass spectrometry. To be noted: 60 minutes incubation, 10-fold excess of compound to protein, room temperature. The class given is binding. The procedure: The following example describes testing certain compounds to determine whether they covalently bind to BTK. The full-length recombinant human Btk protein (Lot #619547Q; 0.35 mg/mL) was obtained from Invitrogen (Carlsbad, Calif.). Btk protein was diluted 2:3 in phosphate-buffered saline and stock concentration (10 mM) of compound was diluted 1:115 in 50% DMSO.
For all compounds, 1 μL of diluted compound was added to 5 μL of diluted protein. These mixtures were then incubated for 60 minutes at a 10-fold excess of compound to protein under room temperature (˜24° C.) conditions.
At the end of the incubation, 5 μL aliquots of the samples were diluted with 15 μL of 0.2% TFA prior to micro C4 ZipTipping® directly onto the MALDI target plate using sinapinic acid as the desorption matrix (10 mg/mL in 0.2% TFA:Acetonitrile 50:50). Samples were immediately analyzed on an ABSciex 4800 MALDI TOF-TOF mass spectrometer.
For intact protein mass measurement, the mass spectrometer was set in linear mode using a pulsed extraction setting of 81,500. Bovine serum albumin (BSA; Sigma, St Louis, Mo.) was used as the standard to calibrate the instrument. These values correspond to the percentage of total protein covalently modified by the tested compound after one hour incubation.
In the case of `COCCOc1ccc(Nc2ncc(F)c(Nc3cccc(NC(=O)C(O)CO)c3)n2)cc1` (stereo not drawn) [Compound I-4, N-(3-((5-fluoro-2-((4-(2-methoxyethoxyl)phenyl)amino)pyrimidin-4-yl)amino)phenyl)-2,3-dihydroxypropanamide], the MS % modification entry is recorded as “C (<30% modification)”. The entry for `O=C(Nc1cccc(Nc2nc(Nc3ccc(O)cc3)ncc2F)c1)C(O)CO` (stereo not drawn) [Compound I-6, N-(3-((5-fluoro-2-((4-hydroxyphenyl)amino)pyrimidin-4-yl)amino)phenyl)-2,3-dihydroxypropanamide] is “C (<30% modification)”. Turning to `C=CC(=O)Nc1cccc(Nc2nc(Nc3ccc(O)cc3)ncc2F)c1` [Compound I-3, N-(3-((5-fluoro-2-((4-hydroxyphenyl)amino)pyrimidin-4-yl)amino)phenyl)acrylamide], the MS % modification entry is on record as “A (>70% modification)”. Regarding `O=C(Nc1cccc(Nc2nc(Nc3ccc(OCCO)cc3)ncc2F)c1)C(O)CO` (stereo not drawn) [Compound I-5, N-(3-((5-fluoro-2-((4-(2-hydroxyethoxyl)phenyl)amino)pyrimidin-4-yl)amino)phenyl)-2,3-dihydroxypropanamide], the MS % modification result is “C (<30% modification)”. On to `C=CC(=O)Nc1cccc(Nc2nc(Nc3ccc(OCCO)cc3)ncc2F)c1` [Compound I-1, N-(3-((5-fluoro-2-((4-(2-hydroxyethoxyl)phenyl)amino)pyrimidin-4-yl)amino)phenyl)acrylamide], for which the MS % modification result was “B (31-69% modification)”. Turning to `COCCOc1ccc(Nc2ncc(F)c(Nc3cccc(NC(=O)C4CO4)c3)n2)cc1` (stereo not drawn) [Compound I-19, N-(3-((5-fluoro-2-((4-(2-methoxyethoxyl)phenyl)amino)pyrimidin-4-yl)amino)phenyl)oxirane-2-carboxamide], the MS % modification entry was “A (>70% modification)”.
